Patent US10751373B2, “PD-L1 expressing hematopoietic stem cells and uses” (The Children's Medical Center Corporation, priority 2015, dated 2020)
Where two headings read alike, the source gives them in different places.

Legend:
[1] = test system: CD34^+ cells
Text: To assess whether mobilization alters expression of PD-L1 on HSCs we studied the immune phenotype of HSCs before and after mobilization with anti-CXCR4 in 5 healthy subjects and 8 individuals with T1D.
Blood samples were obtained from new onset diabetic individuals (New-onset T1D), long-standing diabetic individuals (T1D) and healthy individuals (CTRL) in accordance with The San Raffaele Scientific Research Institute under an Institutional Review Board committee approval. Peripheral blood mononuclear cells (PBMC) fractions were isolated by Ficoll density gradient centrifugation for cell culturing experiments. Additional blood samples were obtained from T1D subjects and CTRL at baseline before treatment and 6 hours after treatment with CXCR4-antagonist (Mozobil; Sanofi) at the dose of 0.24 mg/kg body weight in accordance with the Institution Review Board Committee of Padova (2996P) and was performed in accordance with the Declaration of Helsinki (Clinical trial registered on clinicaltrials.gov (NCT02056210)). Patients with Type 1 Diabetes aged 18-65 years were recruited among those referred to the diabetes outpatient clinic of the University Hospital of Padova. Individuals without diabetes aged 18-65 years were recruited from those referred to the same outpatient clinic for screening of other metabolic diseases. All provided written informed consent. […] Women with childbearing potential could participate in the study if on oral contraception, and a negative pregnancy test was required before study entry. […] All medications for the treatment of diabetes and for other medical conditions were allowed during the study.
To assess PD-L1, PD-L2 and PD-1 expression on human HSCs, fresh blood collected from healthy individuals, T1D and new-onset T1D individuals was stained with PE-Cy5.5 anti-human CD34, PE anti-human PD-L1 or PD-L2 or PD-1 (BD Biosciences). […]

[2] = test system: Lin^−c-Kit^+Sca-1^+ cells
Experimental: (§1) We evaluated the characteristics of CXCR4 antagonist-mobilized HSCs by FACS analysis. Lin^−c-Kit^+Sca-1^+ cells were sorted from islet-transplanted or naïve CXCR4 antagonist-treated mice after 7 and 14 days of treatment. […] To evaluate the immunoregulatory role of PD-L1 in murine HSCs, we investigated the effect of mobilized HSCs from WT and PD-L1 KO mice on the alloimmune response in vitro. A standard MLR assay was performed in which HSCs (from WT B6 or PD-L1 KO mice) were syngeneic to responder cells (CD4^+ cells from B6) but allogeneic to bone marrow-derived DCs (from BALB/c). […] The percentage of peripheral PD-L1^+ KLS in 10-week-old NOD and B6 mice was evaluated by FACS. […] We performed a pilot study to assess the feasibility of generation of PD-L1^+ HSCs in vitro by pharmacologic approach. KLS cells were isolated from splenocytes of B6 and NOD mice by magnetic beads and cultured with standard stem cell medium plus PGE2 (2 μl, 10 μM).

[3] = test system: KLS cells; test: In vitro culture of murine KLS cells with PGE2, PD-L1+ HSCs by FACS; type: cell-based; conditions: KLS of B6 and NOD mice; PGE2 (2 μl, 10 μM); after 8 days
Experimental: as §1

[4] = test system: CD34^+ cells; test: Ex vivo culture of human CD34+ cells with PGE2, PD-L1 expression by FACS; type: cell-based
Experimental: CD34^+ cells were isolated from patients (20 ml of blood) using magnetic beads and ˜1×10^6 cells were plated in a U-bottom 96-well plate with 200 μl of the indicated medium. STFIA medium was defined as serum-free medium supplemented with 10 μg/ml heparin, 10 ng/ml human SCF, 20 ng/ml human TPO, 10 ng/ml human FGF-1, 100 ng/ml IGFBP2, and 500 ng/ml Angptl3. PGE2 was added the culture at 0 h, 24 h, 72 h and 6 days. An aliquot of 2 μl of diluted PGE2 at a concentration of 10 μM was added to the 200 μl of each well in the 96-well plate. The approximate final concentration of PGE2 in each well is 0.1 μM. Therefore, the cells are exposed to ˜0.1 μM of PGE2. The periodic addition of PGE2 at 24 h, 72 h and 6 days serves to maintain the PGE2 in the culture media. Cells were cultured for 7 days at 37° C. in 5% CO2 and the normal level of O2.
Alternatively, cells are cultured in the same conditions for 48 h in the absence of PGE2, after which and PGE2 is added and then later at 24 h after the initial additional. PGE2 is added to the same approximate final concentration of PGE2 of 0.1 μM. We typically observed a ˜10-fold increase of CD34^+PD-L1^+ of cells after 8 days of culture when compared with a cell culture with the same medium cultured for the same time in the same conditions with cells obtained from the same subjects but without addition of PGE2.
Human – human HSCs were cultured using StemSpan supplemented with human stem cell growth factors as previously reported (22). Briefly, CD34^+ cells were plated at 5×10^5 cells/ml in supplemented StemSpan on a 96-well plate, at 200 μl/well for 7 days. HSCs were pulsed with PGE2 as described in murine experiments. PD-L1^+ HSCs were quantified by FACS analysis at different timepoints and at the end of the procedure.

[5] = test system: CD34+ cells; test: HSC mobilization with hrG-CSF (trial NCT01102699); type: in vivo, human; conditions: 5 μg/kg
[6] = after 7 and 14 days of treatment

c1cc(CN2CCCNCCNCCCNCC2)ccc1CN1CCCNCCNCCCNCC1 [CXCR4 antagonist, plerixafor]
percentage of CD34^+ PD-L1^+ cells after mobilization ([1]; 5 controls and 8 T1D individuals): decrease | PD-L1 expression on CD34^+ cells after mobilization ([1]; T1D individuals (n=8), before 1.5±0.8): 4.7±1.5 | PD-L1 expression on CD34^+ cells after mobilization ([1]; healthy subjects (n=5), before 0.6±0.2): 6.2±0.6 | PD-L1^+ HSCs in bone marrow ([2]; B6 islet-transplanted mice, 6 h after initiation of treatment): did not increase | CXCR4 expressed by extracted HSCs [2, 6]: 38.4±4.2% | PD-L1 expressed by mobilized HSCs [2, 6]: 58.0±7.1%

CCCCC[C@H](O)/C=C/[C@H]1[C@H](O)CC(=O)[C@@H]1C/C=C\CCCC(=O)O [PGE2, prostaglandin E2]
increase in the PD-L1^+ HSCs [3]: ~30 % fold | increase in the percentage of PD-L1^+ HSCs ([4]; CD34+ cells of T1D individuals (n=10), after 7 days): ~8 times fold | increased expression of PD-L1 as compared to baseline ([4]; PGE2 culture protocol): at least 5 fold | increase of CD34^+PD-L1^+ of cells ([4]; PGE2 ~0.1 μM, after 8 days of culture vs same culture without PGE2): ~10 fold

B1: hrG-CSF: granulocyte colony stimulating factor (protein, UniProt P09919 31-207, looked up)
Granulocyte …: TPLGPASSLPQSFLLKCLEQVRKIQGDGAALQEKLVSECATYKLCHPEELVLLGHSLGIPWAPLSSCPSQALQLAGCLSQLHSGLFLYQGLLQALEGISPELGPTLDTLQLDVADFATTIWQQMEELGMAPALQPTQGAMPAFASAFQRRAGGVLVASHLQSFLEVSYRVLRHLAQP
CD34+ cell mobilization ([5]; T1D individuals): impaired mobilization | CD34+ cell mobilization ([5]; healthy controls): significantly increased
